{"source": "patent US8618082B2", "about": "“Lupeol anti-tumor agent and uses thereof” (Wisconsin Alumni Research Foundation, priority 2004, dated 2013)", "key": {"CWR22Rv1 cells": {"system": "CWR22Rv1 cells", "assay": "CWR22Rv1 xenograft tumor growth in athymic nude mice", "assay_type": "in vivo, mouse", "conditions": "Lupeol 1 mg/animal i.p. three times a week, vs control mice", "experimental": "FIG. 18 depicts effect of lupeol treatment on the growth of tumors from CWR22Rv1 cells implanted in nude mice. The growth was measured in terms of average volume of tumors as a function of time. Data is represented as mean±SD. * indicates p<0.05 (B) Number of mice remaining with tumor volumes<1000 mm^3 after treatment with corn oil alone or Lupeol for indicated weeks. * indicates p<0.01\nTo determine, whether lupeol could reduce the tumorigenicity of prostate cancer cells in animal model, androgen-dependent prostate cancer cells CW22Rv1, were implanted in a Athymic nude mouse xenograft model. Mice were given i.p. injection of Lupeol (1 mg/animal) three times a week. Tumor growth was measured weekly in terms of volume of tumors as function of time."}, "AsPC-1 cells": {"system": "AsPC-1 cells", "assay": "Apoptosis in AsPC-1 cells by fluorescence microscopy and flow cytometry", "assay_type": "cell-based", "conditions": "flow cytometry and confocal microscopy", "text": "FIG. 21 depicts Lupeol induced apoptosis in AsPC-1 cells as assessed by fluorescence microscopy (Upper Panel) and by flow cytometry (Bottom Panel). Upper panel of FIG. 21 contains the representative micrographs of AsPC-1 cells undergoing apoptosis induced by treatment with Lupeol as assessed by fluorescence microscopy (Upper panel)."}, "CD-1 mouse": {"system": "CD-1 mouse", "assay": "Preliminary dose study, primary biomarkers of tumor promotion", "assay_type": "in vivo", "conditions": "0.25 and 0.5 mg of Lupeol per animal, topical; data not shown", "experimental": "Studies from the inventors' laboratory and by other have shown that TPA application to mouse skin results in cutaneous edema (Katiyar et at, 1996; Liang et at, 2002). In the present study, the inventors evaluated the protective effects of topical application of Lupeol in TPA-mediated cutaneous edema in CD-1 mouse. The inventors tested four doses 0.25, 0.5, 1 and 2 mg of Lupeol per animal in the inventors' preliminary studies. […] The CD-1 mice were topically treated with Lupeol (1 and 2 mg/mouse) and 30 min later were topically treated with TPA (3.2 nmole/mouse). […] At least four determinations were made at different dorsal skin sites per mouse in each group. The data represents the mean±SE of eight mice (*p<0.01 vs TPA)."}, "[1]": {"system": "Fas receptor in LNCaP cells", "assay": "Fas-siRNA silenced LNCaP cells: Fas expression and viability", "assay_type": "cell-based, human", "conditions": "vs LNCaP cells with Fas receptor expression treated with Lupeol", "experimental": "FIG. 17 depicts effect of Lupeol treatment on the growth of CaP cells transfected with Fas-siRNA and on the expression of Fas receptor in Fas-silenced CaP cells: (A). Cells were treated with specified concentrations of Lupeol alone, anti-Fas mAb or non-sense siRNA (negative control), Fas-siRNA, combination (Lupeol+Fas-siRNA) and combination (anti-Fas mAb+Fas-siRNA). The expression of Fas receptor protein in total cell lysate was determined by western blot analysis. Equal loading was confirmed by stripping immunoblots and reprobing them for β-actin. The immunoblots shown here are representative of three independent experiments with similar results. (B). Cells were treated with specified concentrations of Lupeol alone, anti-Fas mAb or non-sense siRNA (negative control), Fas-siRNA, combination (Lupeol+Fas-siRNA) and combination (anti-Fas mAb+Fas-siRNA). The values represent percent viable cells where vehicle-treated cells were regarded as 100% viable. Data represents mean value of percent viable cells±S.E of three independent experiments.\nTo determine whether Lupeol induces apoptosis of LNCaP cells selectively through Fas receptor, we used siRNA technology. siRNA's have the ability to silence […] any specific protein. We designed siRNA against Fas receptor protein and treated LNCaP cell with them."}}, "note": "Entries after “also recorded” stand apart in the source; their conditions may differ.", "data": [{"smiles": "C=C(C)[C@@H]1CC[C@]2(C)CC[C@]3(C)[C@H](CC[C@@H]4[C@@]5(C)CC[C@H](O)C(C)(C)[C@@H]5CC[C@]43C)[C@@H]12", "note": "[Lupeol, Lup-20(29)-en-3β-ol]", "values": [{"measurement": "tumor growth (tumor volume as function of time)", "setting": "CWR22Rv1 cells", "value": "significant reduction in tumor growth; also recorded: significantly Lower than control mice"}, {"measurement": "induction of apoptosis in ASPC-1 cells", "setting": "AsPC-1 cells", "value": "inducing apoptosis"}, {"measurement": "effect on primary biomarkers of tumor promotion", "setting": "CD-1 mouse", "value": "did not exhibit any significant effect"}, {"measurement": "cell death of Fas-silenced LNCaP cells", "setting": "[1]", "value": "reduced cell death"}]}]}
